For one assay, the system named is DSS-induced colitis. In words: DSS-induced colitis. The assay is classed as in vivo, male C57 mice. On the procedure:
The 8 to 10 week old male C57 mice (18-20 g) were used in the study. Animals were divided into two experimental groups: vehicle control and compound of formula (Ia). Same day animals were provided 2% dextran sulfate sodium (DSS) solution in water for 7 days. Animals were treated with vehicle or compound of formula (Ia) (15 mg/kg) by oral route daily for 10 days. Body weight was recorded daily for 10 days. Disease activity score was evaluated based on stool consistency and rectal bleeding (Kim JJ et al., 2012). Relative colon length was measured. Colon myeloperoxidase (MPO) activity was estimated (Kim JJ et al., 2012).

In a further assay the test system is TNBS-induced colitis. Put plainly: TNBS-induced colitis. The following applies: 15 mg/kg orally, Balb/c mice. The assay is classed as in vivo, Female BalbC mice. On the procedure: Female BalbC mice (6-8 weeks old) were used in the study. Mice were sensitized by topical application of 1% trinitrobenzene sulfonic acid (TNBS) in acetone/olive oil solution (4:1). After 7 days of sensitization, mice were challenged with 2.5% TNBS solution by intra-rectal route administered 5 mL/kg of body weight under anesthesia. Mice were monitored for development of disease over 5 days. TNBS-treated mice were randomly divided into 2 groups: TNBS-control (TNBS) and TNBS + compound of formula (Ia) (15 mg/kg, orally). Treatment was started on one day before TNBS challenge (2.5 %) and continued up to day 5 after TNBS challenge (2.5%). Animals were monitored for body weight change daily for 5 days. Intestinal permeability was estimated by Evans blue method (Han ED et al., 2002).

For the compound `O=C(O)CNC(=O)c1c(O)c2ccccc2n(OCC2CC2)c1=O` [Compound of formula (Ia), Desidustat], the “reduction of colon MPO against vehicle control” value in the assay with DSS-induced colitis (15 mg/kg oral daily for 10 days, colon myeloperoxidase activity) was determined as 74.9 ± 5.0%. Moreover, in the assay on DSS-induced colitis (15 mg/kg oral daily for 10 days, score based on stool consistency and rectal bleeding), the “decrease in disease activity score when compared with vehicle control” value was determined as 31.8 ± 9.8%. In addition, the “increase in body weight against vehicle control” value in the assay on DSS-induced colitis (15 mg/kg oral daily, after ten days of treatment, 2% DSS for 7 days) is listed as 49.0 ± 12.9%. In addition, in the assay on TNBS-induced colitis (5th day after TNBS challenge), the “weight gain when compared with vehicle control” value is on record as 17.4 ± 1.4%. Besides, the “decrease in intestinal permeability when compared against vehicle control” value in the assay on TNBS-induced colitis (Evans blue method) is 51.7 ± 4.4%.

Values taken from patent US20230233550A1, “TREATMENT FOR THE INFLAMMATORY BOWEL DISEASE” (priority 2020, published 2023).
